From patent US10800801B2, “Crystalline platinum-based compounds” (AKAMARA THERAPEUTICS, INC., priority 2016, dated 2020) come the findings set out here.

The data set is described as follows: physchem. In kind it is physicochemical. To be noted: water, Approximate Solubility. As for the experimental part: Despite this, the screen offered a list of suitable solvents/solvent mixtures and anti-solvents to be used for the crystallization experiments. Using information obtained from the initial investigation into the solubility of IO-125, a series of bench scale crystallization experiments were carried out in order to provide examples of solution-based crystallization method that yield crystalline IO-125. Within this investigation, a number of techniques were designed to find suitable crystallization conditions including: using controlled linear cooling of IO-125 in different solvents, anti-solvent additions, evaporations and seeding. […] A significant mass loss was then observed in thermogravimetric trace from approx. 270° C., and was coupled with a large endothermic event with onset of 288.4° C. and peak at 297.2° C. in the differential thermogram. Again, this is likely associated with the decomposition of IO-125.
Initially a series of solvents and mixture of solvents were screened to select suitable solvents for the crystallization procedure.

For `CC(C)CCC[C@@H](C)[C@H]1CCC2C3CC=C4C[C@@H](OCCN(CC(=O)[O-])CC(=O)[O][Pt+]5[NH][C@@H]6CCCC[C@H]6[NH]5)CC[C@]4(C)C3CC[C@@]21C` (stereo partly shown) [Comp 25], the solubility (in general, the dissolved amount per volume that the medium holds) was no more than 10000 µg/mL.
